Data: ChEMBL document CHEMBL1268862, “Eucophylline, a Tetracyclic Vinylquinoline Alkaloid from Leuconotis eugenifolius” (J Nat Prod, 2010)

Assay: Antiinflammatory activity in mouse J774.1 cells assessed as inhibition of LPS-induced NO production
Type: functional, cell-based

SMILES | IC50
C=Cc1c2c(nc3cc(O)c([C@@H]4C[C@@]5(CC)CCCN6CCc7c(n4c4ccccc74)[C@H]65)cc13)N1CCC[C@](CC)(C2)C1 [LEUCOPHYLLIDINE] | 7.1 µM
CNC(=N)NCCC[C@H](N)C(=O)O [TILARGININE] | 22 µg/mL
